# Measurements from PMC2443290, “Genistein-Supplemented Diet Decreases Malaria Liver Infection in Mice and Constitutes a Potential Prophylactic Strategy” (PLoS ONE, 2008).
# Values joined by “and” are separate entries in the source; they are usually repeats but may differ in a detail not shown here. Equal entries are not always repeated. Where two headings read alike, the source gives them in different places.
# Columns and labels:
# [1] = system: phospho c-met (Tyr1234/1235); experiment: Sporozoite-induced MET phosphorylation in Huh7 cells, Western blot; type: cell-based, human; details: four hours after sporozoites
# Method: Four hours later total protein extracts were analysed with anti-phospho c-met (Tyr1234/1235) and MET antibodies.
# Protein concentrations were determined using the Bio-Rad Laboratories DC protein assay kit and equal amounts of protein extracts ([…]) were separated by 8% SDS-PAGE gels, transferred onto nitrocellulose membranes and processed for Western blotting. The antibody directed to phospho-MET was used at 1∶1000 dilution (#3126; Cell signalling technology, Inc.) and β-chain of human MET was detected with the antibody MET (C-12) at 0,5 μg/mL dilution (#sc-10; Santa Cruz Biotechnology, Inc.). After incubation with the primary antibodies the enhanced chemiluminescence detection system ECL and Kodak films (Amersham Pharmacia Biotech, Piscataway, NJ) were used to visualize proteins on the nitrocellulose blots.
# [2] = system: P. berghei ANKA sporozoites; experiment: In vitro infection of HepG2 cells by P. berghei ANKA sporozoites, EEF counting; type: cell-based; details: 25 μM
# Method: (§1) HepG2, and Hepa1-6 cells (human and mouse hepatoma cell lines, respectively) were maintained in DMEM 10% FCS, 1% Penicillin/Streptomycin and 1 mM glutamine. HepG2 or Hepa1-6 cells (2×10^5) were seeded in 24-well plates and allowed to adhere for 24 hours before infection. Huh7 cells (human hepatoma cell line) were maintained in RPMI 10% FCS, 1% Penicillin/Streptomycin and 1 mM glutamine. Huh7 cells (1,75×10^5) were seeded in 24-well plates and allowed to adhere for 24 hours before infection. Green fluorescent protein (GFP)-expressing P. berghei ANKA sporozoites were obtained from the dissection of infected Anopheles stephensi mosquito salivary glands.
# (§2) P. berghei ANKA sporozoites (4×10^4/well) were added to monolayers of Hepa1-6 or HepG2 cells in 24-well plates. […] As control, an equivalent volume of DMSO (dimethylsulphoxide) was added. After 24 hours cells were fixed and stained with mouse anti-EEF (exo-erythrocytic forms of the parasite) antibody (2E6), followed by an anti-mouse secondary antibody. In all experiments, genistein was left in the cultures since the time of addition until the cells were fixed for quantification of infection. Infection was quantified by counting the total number of EEFs per coverslip using fluorescence microscopy (magnification 400×). […] The level of infection was measured as described above, 24 hours post-infection with sporozoites. Quantification of the area of 100 individual EEFs of each group was performed using ImageJ 1.36b software. The results are expressed as areas in μm^2.
# [3] = system: P. berghei ANKA sporozoites; experiment: Mouse liver infection by P. berghei ANKA sporozoites, 18S rRNA qRT-PCR; type: in vivo
# Method: (§3) C57BL/6 mice were bred and housed in the pathogen-free facilities of the Instituto de Gulbenkian de Ciência following all the EU regulations. The mice were then moved to the Instituto de Medicina Molecular Animal House were all the experiments were performed. All protocols were approved by the IMM Animal Care Committee. […] All mice were infected with 1×10^4 P. berghei ANKA sporozoites between the ages of 7 and 9 weeks old and liver infection was determined 40 hours later. In a parallel set of experiments, sporozoite infection was allowed to proceed to blood stage, to assess the impact of genistein in disease progression.
# Forty hours post-sporozoite injection, livers were dissected and homogenized, and total RNA was extracted with an RNeasy Mini kit Quiagen, according to the manufacturer's recommendation. cDNA was obtained by reverse transcription using the First-strand cDNA synthesis kit (Roche) following the manufacturer's instructions. Quantitative RT-PCR reactions were performed for quantification of parasite load, using an ABI PRISM 7000, Applied Biosystem, and specific primers for Plasmodium berghei 18 S rRNA (5′-[…]-3′ and 5′-[…]-3′); or specific primers for P. yoelii 18 S rRNA (5′ –[…]-3′ and 5′-[…]-3′) were used for quantification of parasite load in the livers of mice 40 hours after sporozoite challenge. The amplification program consisted of incubation at 50°C for 2 min, 95°C for 10 min, followed by 50 cycles at 95°C for 15 s and 60°C for 1 min. For external standardization, plasmids encoding cDNA fragments cloned into TOPO TA, Invitrogen; corresponding to the amplified regions of the corresponding genes, were utilized. Copy numbers were calculated comparing the cycle numbers of the log-linear phase of the samples with the cycle numbers of the external standards.
# P. yoelii = experiment: IC50 of infection of Hepa1-6 cells by P. yoelii, 18S rRNA qRT-PCR; type: cell-based; details: Plasmodium yoelii, Hepa1-6, 24 h, P. yoelii infection of Hepa1-6 cells, read-out: IC50 (inhibition of infection)
# [4] = system: P. berghei ANKA sporozoites; experiment: In vitro infection of Huh7 cells by P. berghei ANKA sporozoites, EEF counting; type: cell-based
# Method: as §1
# as §2, with “After 24 hours cells were fixed and stained with mouse anti-EEF (exo-erythrocytic forms of the parasite) antibody (2E6), followed by an anti-mouse secondary antibody.” left out
# [5] = adults; daily ingestion of up to 54 mg; cited from earlier work
# [6] = system: P. berghei ANKA sporozoites; experiment: Blood parasitemia, survival and experimental cerebral malaria after sporozoite infection of mice; type: in vivo; details: 1000 ppm genistein-supplemented diet
# Method: as §3
# After sporozoite inoculation, peripheral blood parasitemias were followed daily by counting parasites in Giemsa stained thin blood films. To accurately quantify parasitemia in the first 96 hours post-infection, 50 to 100 microscope fields were examined in each blood film. At later time points, when the levels of parasitemia were higher, 20 microscope fields were counted per mouse. Mice were checked daily for development of ECM symptoms, which include ataxia, paralysis, deviation of the head and convulsions, coma and death.
# [7] = system: P. berghei ANKA sporozoites; experiment: Pre-treatment of sporozoites with genistein, then infection of HepG2 cells; type: cell-based; details: sporozoites incubated with 100 μM for 30 min, washed, added to HepG2 cells; 24 hours
# Method: (§4) Twenty four hours later the number of adherent cells was determined in 10 fields per coverslip, in triplicates. […] Control sporozoites were treated with equivalent volume of DMSO. After 30 min of incubation, sporozoites were washed and added to a monolayer of HepG2 cells seeded 24 hours before. Infection was assessed 24 hours later by determining the number of EEFs in each well.
# P. yoelii sporozoites = experiment: Mouse liver infection by P. yoelii sporozoites, 18S rRNA qRT-PCR; type: in vivo; details: single i.p. dose 200 mg/kg immediately prior to i.v. sporozoites; 40 hours
# Method: as §3
# Forty hours post-sporozoite injection, livers were dissected and homogenized, and total RNA was extracted with an RNeasy Mini kit Quiagen, according to the manufacturer's recommendation. cDNA was obtained by reverse transcription using the First-strand cDNA synthesis kit (Roche) following the manufacturer's instructions. Quantitative RT-PCR reactions were performed for quantification of parasite load, using an ABI PRISM 7000, Applied Biosystem, and specific primers for Plasmodium berghei 18 S rRNA (5′-[…]-3′ and 5′-[…]-3′); or specific primers for P. yoelii 18 S rRNA (5′ –[…]-3′ and 5′-[…]-3′) were used for quantification of parasite load in the livers of mice 40 hours after sporozoite challenge. […]
# HepG2 cells = experiment: Viability of genistein-treated HepG2 cells, number of adherent cells; type: cell-based, human; details: 25 μM or 250 μM, 24 hours
# Method: as §4
# [8] = system: P. berghei ANKA-infected red blood cells (iRBC); experiment: Blood stage infection of mice with P. berghei ANKA iRBC; type: in vivo; details: 1000 ppm genistein-supplemented diet; 1×10^6 iRBC i.p.
# Method: Peripheral blood parasitemia and ECM symptoms were determined as described above.
# Huh7 cells = experiment: Cell death of Huh7 cells, propidium iodide flow cytometry; type: cell-based, human; details: 24 hours
# P. berghei sporozoites = type: cell-based; details: data not shown
# Method: (§5) This was performed in parallel to experiments where primaquine was tested in P. berghei infection of Huh7 cells. […] In addition to hepatoma cell lines primary mouse hepatocyte cultures were also used.
# P. berghei ANKA = experiment: IC50 of infection of Huh7 cells by P. berghei ANKA, 18S rRNA qRT-PCR; type: cell-based; details: Plasmodium berghei
# Method: as §5
# Black circles represent the mean of P. berghei ANKA18S rRNA expression in each condition (n = 3). […] Black circles represent the mean of P. berghei ANKA18S rRNA expression in each condition (n = 3).
# [9] = system: P. berghei ANKA expressing GFP sporozoites; experiment: FACS analysis of Huh7 cells infected with PbGFP sporozoites (invasion and GFP intensity); type: cell-based
# Method: FACS analysis at 2, 6, 30 and 44 hours after sporozoite addition was performed to determine the percentage of parasite-containing cells and parasite-GFP intensity within infected cells. Cell samples for FACS analysis were processed as previously described.
# [10] = system: P. berghei ANKA sporozoites; experiment: In vitro infection of Hepa1-6 cells by P. berghei ANKA sporozoites, EEF counting; type: cell-based
# Method: as §1
# as §2, with “After 24 hours cells were fixed and stained with mouse anti-EEF (exo-erythrocytic forms of the parasite) antibody (2E6), followed by an anti-mouse secondary antibody.” left out
# [11] = Genistein quantification in mouse sera, HPLC/MS; type: in vivo, C57BL/6 mice; details: for Genistein Concentration (μM): mouse sera, individual mice
# Method: as §3, with “later.” for “later. In a parallel set of experiments, sporozoite infection was allowed to proceed to blood stage, to assess the impact of genistein in disease progression.”
# “Free” analytes_aglycones, were extracted from the plasma/serum sample with ethyl acetate. The organic phase was evaporated and the dried residue was reconstituted in the mobile phase. For determination of the “total” isoflavones the glucuronide- and sulphate-conjugates were cleaved by enzymatic hydrolysis prior to ethyl acetate extraction. Chromatographic separation was performed by HPLC/MS on a C18-column in the gradient mode. Mass spectrometric detection (Agilent LC/MSD VL single-quadrupole-mass spectrometer equipped with elektrospray-ion source) was carried out with negative electrospray ionisation in the SIM-mode. Specifically, 200 μl of plasma were transferred into a 2 mL Eppendorf tube and 100 μl of enzyme solution were added. For enzymatic cleavage of the glucuronide- and sulphate-conjugates the samples were incubated at 38°C for 3 h, followed by addition of 30 μl internal standard solution. For extraction, 1200 μl ethyl acetate was added to the sample, shaken for 5 min at 300 rpm and centrifuged for 10 min at 10000 rpm and 10°C. 1000 μl of the supernatant was transferred into a 2 ml Eppendorf tube and evaporated at 30–35°C to dryness with a Vortex-Evaporator or Speed Vac. The dried residue was reconstituted in 150 μl mobile phase, briefly vortexed, and transferred into an HPLC vial. Forty to 75 μl were injected onto the analytical column and analyzed by HPLC-MS [35]. Data acquisition of extracted ion chromatograms, integration and quantification was performed with the Chemstation Software (Version 9.03 or higher) from Agilent Technologies.
smiles,measurement,setting,value
O=c1c(-c2ccc(O)cc2)coc2cc(O)cc(O)c12 [genistein],sporozoite-induced Met phosphorylation,[1],inhibited by genistein
same,"infection, drug removed at different times after infection","[2]; HepG2, added at sporozoite addition and washed at various time-points",reduced infection when it was present during the first 4 hours of infection
same,"infection, drug added at different times after sporozoite addition","[2]; HepG2, added prior to infection or up to 6 hours after sporozoite addition",significantly reduced infection to approximately the same extent
same,reduction in infection,"[2]; HepG2 cells, 24 hours after infection",74±8%
same,relation of degree of liver infection to genistein levels in sera,[3]; 1000 ppm genistein-supplemented diet,inversely correlated
same,liver parasite load,"[3]; 1000 ppm genistein-supplemented diet, 40 hours after sporozoite injection",significantly reduced
same,parasite load in the liver,"[3]; single i.p. dose 200 mg/kg immediately prior to i.v. sporozoites, 40 hours",reduced infection
same,reduction of liver infection,"[3]; single oral dose 200 mg/kg 6 hours prior to sporozoite inoculation, 40 hours after infection",64%
same,IC50,P. yoelii,~30 µM
same,infection after pre-treatment of cells,"[4]; Huh7 cells pre-treated 2 h with 25 μM, washed before sporozoite addition, 24 hours",small but significant reduction of infection
same,reduction in infection,"[4]; Huh7 cells, 25 μM, 24 hours after infection",68±4%
same,adverse effects,[5],No obvious adverse effects
same,survival,[6]; 25 days after infection,56%
same,appearance of blood parasitemia,[6]; i.v. sporozoites,significantly reduced
same,mice protected from developing cerebral malaria,[6]; i.v. sporozoites,Fifty-six
same,infection level (EEF number) with pre-treated sporozoites,[7],no significant difference
same,parasite load in the liver,P. yoelii sporozoites,reduced infection
same,number of adherent cells,HepG2 cells,constant number of cells
same,development of parasitemia after iRBC infection,[8],no significant difference
same,proportion of cell death,Huh7 cells,constant proportion of cell death
same,infection of primary mouse hepatocytes,P. berghei sporozoites,reduced the infection of these cells
same,IC50,"P. berghei ANKA; Huh-7, 24 h, read-out: IC50 (inhibition of infection), P. berghei ANKA infection of Huh7 cells",~20 µM
same,increase in GFP intensity of infected cells (parasite development),"[9]; 6, 30 and 44 hours after sporozoite addition",significantly less pronounced
same,invasion rate (GFP positive cells),[9]; 2 hours post-infection,equally invaded
same,EEF size (area),"[10]; Hepa1-6, 25 μM, 24 hours after infection",significantly smaller
same,Hepa1-6 cell infection (total number of EEFs),"[10]; increasing doses of genistein, 24 hours after sporozoite addition",significantly inhibits Hepa1-6 cell infection in a dose-dependent manner
same,genistein amounts in sera,[11]; genistein supplemented diet,≤ 5 µM
same,Genistein Concentration (μM),"[11]; single oral dose 200 mg/kg, 2 h after gavage, 200 mg/kg","7,07 μM and 15,00 μM and 13,25 μM and 7,23 μM"
same,Genistein Concentration (μM),"[11]; single oral dose 200 mg/kg, 6 h after gavage, 200 mg/kg","0,57 μM and 0,32 μM and 0,45 μM and 2,29 μM"
same,Genistein Concentration (μM),"[11]; supplemented diet 1000 ppm, 7–9 weeks old mice","3,32 μM and 1,99 μM and 1,35 μM and 2,26 μM and 3,02 μM and 1,34 μM and 3,14 μM and 3,75 μM and 0,20 μM and 1,11 μM and 0,84 μM and 1,37 μM and 0,68 μM and 1,16 μM and 1,42 μM"
COc1cc(NC(C)CCCN)c2ncccc2c1 (stereo not shown) [primaquine],IC50,"P. berghei ANKA; Huh-7, P. berghei ANKA infection of Huh7 cells, 24 hours, read-out: IC50 (inhibition of infection)",13 µM
